In patent US4581354A, “3-arylcarbonyl- and 3-cycloalkylcarbonyl-1-aminoalkyl-1H-indoles, compositions and use” (Sterling Drug Inc., priority 1985, dated 1986):
Structures can show the parent of a compound that is named as a salt. Where two headings read alike, the source gives them in different places.

Tested on: acetylcholine-induced abdominal constriction
Assay: animal or person
Assay type: in vivo, mice
Details: Mus musculus; for inhibition in vivo at 1000 mg/kg: 1000 mg./kg. oral; for ED50: read-out: Ach ED50; for inhibition in vivo at 300 mg/kg: 300 mg./kg. oral; for inhibition in vivo at 30 mg/kg: 30 mg./kg. oral; for inhibition in vivo at 550 mg/kg: 550 mg./kg. oral; for inhibition in vivo at 100 mg/kg: 100 mg./kg. oral
From the text: The test procedures used to determine the analgesic activities of the compounds have been described in detail in the prior art and are as follows: The acetylcholine-induced abdominal constriction test, which is a primary analgesic screening test designed to measure the ability of a test agent to suppress acetylcholine-induced abdominal constriction in mice, described by Collier et al., Brit. J. Pharmacol. Chemotherap. 32, 295 (1968); a modification of the anti-bradykinin test, which is also a primary analgesic screening procedure, described by Berkowitz et al., J. Pharmacol. Exptl. Therap. 177, 500-508 (1971), Blane et al., J. Pharm. Pharmacol. 19, 367-373 (1967), Botha et al., Eur. J. Pharmacol. 6, 312-321 (1969) and Deffenu et al., J. Pharm. Pharmacol. 18, 135 (1966); and the rat paw flexion test, described by Kuzuna et al., Chem. Pharm. Bull., 23, 1184-1191 (1975), Winter et al., J. Pharm. Exptl. Therap., 211, 678-685 (1979) and Capetola et al., J. Pharm. Exptl. Therap. 214, 16-23 (1980).
Unless noted otherwise, all data were obtained on oral administration and are expressed either as the ED50 or as the percent inhibition at a given dose level (thus 30/100 or 30% inhibition at […].)
In some instances, the compounds were retested two or more times, and ED50 values were calculated for each series of repeat tests. In such instances, each of the ED50 values so-obtained is given in a series of values, thus 6, 28, 30, 43 in the case of the species of Example 1AW in the acetylcholine-induced abdominal constriction test.

[1] = po, read-out: Ach percent inhibition

Row | Structure (SMILES) | ED50 (po) [mg/kg] | inhibition in vivo at 100 mg/kg [1] [%] | further results
1 | Cc1c(C(=O)c2ccc(F)cc2)c2ccccc2n1CCN1CCOCC1 [Example 1Q, 3-(4-fluorobenzoyl)-2-methyl-1-[2-(4-morpholinyl)ethyl]-1H-indole] | – | – | inhibition in vivo at 24 mg/kg (po, 24 mg./kg. oral, read-out: Ach percent inhibition): 7%; inhibition in vivo at 79 mg/kg (po, 79 mg./kg. oral, read-out: Ach percent inhibition): 27%; inhibition in vivo at 238 mg/kg (po, 238 mg./kg. oral, read-out: Ach percent inhibition): 60%; inhibition in vivo at 435 mg/kg (po, 435 mg./kg. oral, read-out: Ach percent inhibition): 67%; inhibition in vivo at 793 mg/kg (po, 793 mg./kg. oral, read-out: Ach percent inhibition): 60%; inhibition in vivo at 1000 mg/kg [1]: 67%
2 | Cc1c(C(=O)c2ccc3c(c2)OCO3)c2ccccc2n1CCN1CCOCC1 [Example 1R] | 198 | – | –
3 | Cc1c(C(=O)c2csc3ccccc23)c2ccccc2n1CCN1CCOCC1 [Example 1T] | 106 | – | ED50 (iv): 3.8 mg/kg
4 | COc1ccccc1C(=O)c1c(C)n(CCN2CCOCC2)c2ccccc12 [Example 1U, 2-methyl-3-(2-methoxybenzoyl)-1-[2-(4-morpholinyl)ethyl]-1H-indole] | 155 | – | –
5 | COc1ccc(C(=O)c2c(C)n(CCN3CCOCC3)c3ccccc23)cc1F [Example 1V] | – | – | inhibition in vivo at 300 mg/kg [1]: 20%
6 | Cc1c(C(=O)c2ccc3ccccc3c2)c2ccccc2n1CCN1CCOCC1 [Example 1W] | – | – | inhibition in vivo at 1 mg/kg (iv, 1 mg./kg. i.v., read-out: Ach percent inhibition): 10%; inhibition in vivo at 1.73 mg/kg (iv, 1.73 mg./kg. i.v., read-out: Ach percent inhibition): 0%; inhibition in vivo at 3 mg/kg (iv, 3 mg./kg. i.v., read-out: Ach percent inhibition): 86%; inhibition in vivo at 30 mg/kg [1]: 0%; inhibition in vivo at 300 mg/kg [1]: 40%; inhibition in vivo at 550 mg/kg [1]: 47%
7 | COc1ccc(C(=O)c2cn(CCN3CCOCC3)c3ccc(C)cc23)cc1 [Example 1X] | – | – | inhibition in vivo at 300 mg/kg [1]: 7%
8 | Cc1c(C(=O)c2cccc(F)c2)c2ccccc2n1CCN1CCOCC1 [Example 1Y] | – | 30 | –
9 | Cc1c(C(=O)c2ccccc2F)c2ccccc2n1CCN1CCOCC1 [Example 1Z, 3-(2-fluorobenzoyl)-2-methyl-1-[2-(4-morpholinyl)-ethyl]-1H-indole] | 68 | – | –
10 | Cc1c(C(=O)c2ccc(S(C)(=O)=O)cc2)c2ccccc2n1CCN1CCOCC1 [Example 2-O] | – | 20 | –
11 | Cc1ccc(C(=O)c2cn(C(C)CN3CCOCC3)c3ccccc23)cc1 (stereo not shown) [Example 2A, 3-(4-methylbenzoyl)-1-[1-methyl-2-(4-morpholinyl)ethyl]-1H-indole] | – | – | inhibition in vivo at 30 mg/kg [1]: 7%; inhibition in vivo at 300 mg/kg [1]: 60%; inhibition in vivo at 550 mg/kg [1]: 73%; inhibition in vivo at 1000 mg/kg [1]: 67%
12 | COc1ccc(C(=O)c2c(Cl)n(CCN3CCOCC3)c3ccccc23)cc1 [Example 2AB] | 91 | – | –
13 | CCCc1ccc(C(=O)c2c(C)n(CCN3CCOCC3)c3ccccc23)cc1 [Example 2AC] | – | 30 | –
14 | Cc1ccccc1C(=O)c1c(C)n(CCCN2CCOCC2)c2ccc(F)cc12 [Example 2AD] | – | 10 | –
15 | Cc1c(C(=O)c2ccc(F)cc2)c2cc(F)ccc2n1CCCN1CCOCC1 [Example 2AE] | – | 20 | –
16 | Cc1c(C(=O)c2ccoc2)c2cc(F)ccc2n1CCCN1CCOCC1 [Example 2AF] | – | 30 | –
17 | Cc1c(C(=O)C=Cc2ccccc2)c2cc(F)ccc2n1CCCN1CCOCC1 [Example 2AG] | 143 | – | –
18 | Cc1c(C(=O)c2ccc(F)cc2F)c2cc(F)ccc2n1CCN1CCOCC1 [Example 2AH] | – | 20 | –
19 | Cc1c(C(=O)c2cccc3ccccc23)c2ccccc2n1C(C)CN1CCOCC1 (stereo not shown) [Example 2AK] | – | – | inhibition in vivo at 0.3 mg/kg (iv, 0.3 mg./kg. i.v., read-out: Ach percent inhibition): 30%

Row | Structure (SMILES) | ED50 (po) [mg/kg] | inhibition in vivo at 100 mg/kg [1] [%] | further results
20 | O=C(c1cccc2ccccc12)c1cn(CCN2CCOCC2)c2ccccc12 [Example 2AL] | – | – | inhibition in vivo at 0.1 mg/kg (iv, 0.1 mg./kg. i.v., read-out: Ach percent inhibition): 20%
21 | Cc1c(C(=O)c2ccc3occc3c2)c2ccccc2n1CCN1CCOCC1 [Example 2AM] | – | 80 | –
22 | Cc1c(C(=O)c2ccc(F)cc2F)c2ccccc2n1CCN1CCOCC1 [Example 2AN] | 90 | – | –
23 | Cc1c(C(=O)c2ccc(F)cc2F)c2cc(F)ccc2n1CCCN1CCOCC1 [Example 2AO] | – | 40 | –
24 | COc1ccc(C(=O)c2c(C)n(CCN3CCOCC3)c3ccccc23)c(F)c1 [Example 2AP] | 27 | – | –
25 | Cc1c(C(=O)c2ccc(Br)cc2)c2cc(F)ccc2n1CCCN1CCOCC1 [Example 2AR] | – | 50 | –
26 | Cc1cccc(C(=O)c2c(C)n(CCN3CCOCC3)c3ccccc23)c1C [Example 2AT] | – | 20 | –
27 | Cc1c(C(=O)c2cc(Cl)cc(Cl)c2)c2ccccc2n1CCN1CCOCC1 [Example 2AU] | – | 30 | –
28 | Cc1cc(C)cc(C(=O)c2c(C)n(CCN3CCOCC3)c3ccccc23)c1 [Example 2AV] | – | 10 | –
29 | Cc1cccc(C(=O)c2c(C)n(CCN3CCOCC3)c3ccccc23)c1 [Example 2AW] | – | 20 | –
30 | Cc1c(C(=O)c2cccc(Cl)c2)c2ccccc2n1CCN1CCOCC1 [Example 2AX] | – | 0 | –
31 | Cc1c(C(=O)c2ccccc2Cl)c2ccccc2n1C(C)CN1CCOCC1 (stereo not shown) [Example 2AZ] | 26 | – | –
32 | Cc1c(C(=O)c2ccccc2F)c2cc(F)ccc2n1CCCN1CCOCC1 [Example 2BB, 5-fluoro-3-(2-fluorobenzoyl)-2-methyl-1-[3-(4-morpholinyl)propyl]-1H-indole] | – | 40 | –
33 | Cc1c(C(=O)c2ccoc2)c2ccccc2n1CCN1CCOCC1 [Example 2BC] | – | 10 | –
34 | Cc1c(C(=O)c2ccccc2F)c2cc(F)ccc2n1C(C)CN1CCOCC1 (stereo not shown) [Example 2BD] | 15 | – | –
35 | Cc1c(C(=O)c2ccc(Br)cc2)c2ccccc2n1CCN1CCOCC1 [Example 2BE] | – | 30 | –
36 | Cc1c(C(=O)c2ccc3[nH]cnc3c2)c2ccccc2n1CCN1CCOCC1 [Example 2BF] | – | 30 | –
37 | Cc1ccc(C(=O)c2c(C)n(C(C)CN3CCOCC3)c3ccccc23)cc1 (stereo not shown) [Example 2B] | – | – | inhibition in vivo at 300 mg/kg [1]: 47%; inhibition in vivo at 550 mg/kg [1]: 33%
38 | CC(CN1CCOCC1)n1cc(C(=O)c2ccc(F)cc2)c2ccccc21 (stereo not shown) [Example 2D] | – | 20 | inhibition in vivo at 300 mg/kg [1]: 40%; inhibition in vivo at 1000 mg/kg [1]: 67%

Row | Structure (SMILES) | ED50 (po) [mg/kg] | inhibition in vivo at 100 mg/kg [1] [%] | further results
39 | CC(CN1CCOCC1)n1cc(C(=O)c2ccccc2F)c2ccccc21 (stereo not shown) [Example 2E] | 33 | – | –
40 | CC(CN1CCOCC1)n1cc(C(=O)c2cccn2C)c2ccccc21 (stereo not shown) [Example 2F] | – | 40 | inhibition in vivo at 30 mg/kg [1]: 20%; inhibition in vivo at 300 mg/kg [1]: 33%
41 | Cc1c(C(=O)c2ccc(F)cc2)c2ccccc2n1C(C)CN1CCOCC1 (stereo not shown) [Example 2G] | 42 | – | –
42 | Cc1c(C(=O)c2cccn2C)c2ccccc2n1C(C)CN1CCOCC1 (stereo not shown) [Example 2H] | 49 | – | –
43 | Cc1cccc2c(C(=O)c3ccccc3)cn(C(C)CN3CCOCC3)c12 (stereo not shown) [Example 2J] | 60 | – | –
44 | Cc1c(C(=O)c2ccccc2C#N)c2ccccc2n1CCN1CCOCC1 [Example 2L] | – | 10 | –
45 | Cc1c(C(=O)c2cccc(C#N)c2)c2ccccc2n1CCN1CCOCC1 [Example 2M] | – | 20 | –
46 | Cc1c(C(=O)c2ccn(C)c2)c2ccccc2n1CCN1CCOCC1 [Example 2N] | – | 20 | –
47 | Cc1c(C(=O)c2ccsc2)c2ccccc2n1CCN1CCOCC1 [Example 2P] | – | 30 | –
48 | Cc1c(C(=O)C2CCCCC2)c2ccccc2n1CCN1CCOCC1 [Example 2Q] | – | 20 | –
49 | Cc1c(C(=O)c2ccc(C(C)(C)C)cc2)c2ccccc2n1CCN1CCOCC1 [Example 2R] | – | 10 | –
50 | Cc1c(C(=O)c2cc3ccccc3s2)c2ccccc2n1CCN1CCOCC1 [Example 2S] | – | 0 | –
51 | Cc1c(C(=O)c2cccn2C)c2ccccc2n1CCN1CCOCC1 [Example 2T] | – | 30 | –
52 | Cc1ccccc1C(=O)c1c(C)n(CCN2CCOCC2)c2ccccc12 [Example 2U] | 88 | – | –
53 | Cc1ccc(C(=O)c2c(C)n(CCN3CCOCC3)c3ccccc23)cc1C [Example 2V] | – | 20 | –
54 | Cc1c(C(=O)C=Cc2ccccc2)c2ccccc2n1CCN1CCOCC1 [Example 2W] | 72 | – | –
55 | COc1ccc(C(=O)c2c(C)n(CCN(C)CCO)c3ccccc23)cc1 [Example 3-O] | 76 | – | –
56 | COc1ccc(C(=O)c2c(C)n(CCN3CCC(O)CC3)c3ccccc23)cc1 [Example 3A, 2-methyl-3-(4-methoxybenzoyl)-1-[2-(4-hydroxy-1-piperidinyl)ethyl]-1H-indole hydrochloride hemihydrate] | 68.1 | – | –
57 | COc1ccc(C(=O)c2c(C)n(CCCCN3CCOCC3)c3ccccc23)cc1 [Example 3AA] | 22 | – | –
